In patent publication US12152012B2, “BRAG2 inhibitors and applications thereof” (CENTRE NATIONAL DE LA RECHERCHE SCIENTIFIQUE, priority 2018, dated 2024):

Assays:
[1] = target: T1, EFA6 (Sec7PHCt construct) (Homo sapiens, UniProt A5PKW4); assay: Nucleotide exchange kinetics on liposomes, activation of myristoylated Arf1; type: biochemical; settings: 50 μM
T1 construct: human EFA6^Sec7 (527-727) and EFA6^Sec7PHCt (527-1024); made in house
Procedure: (§1) The effect of Bragsin1 on the GEF efficiency of representative human ArfGEFs was evaluated by fluorescence kinetics using highly purified recombinant Arf GTPases and ArfGEFs. In a first series of assays, the Sec7 domains of BIG1, a Golgi ArfGEF, and of ARNO, EFA6a and BRAG2, which function at the plasma membrane, were used. When tested in solution, Bragsin1 had no effect on the activation of Arf1 by any of these Sec7 domains (FIGS. 2a and 14). Separately, we reconstituted the activation of myristoylated Arf1 by the same ArfGEFs on liposomes using ArfGEF constructs that contain a membrane-binding domain (DCB-HUS domain for BIG1, PH domains for the other GEFs). […] BRAG2 activates several Arf isoforms, including the plasma membrane-located Arf6 isoform. […] Bragsin1 and Bragsin2 have the same IC50 towards BRAG2 ([…]) according to dose-response analysis, confirming that Bragsin1 and Bragsin2 can be used interchangeably (FIG. 2d). The specific inhibition of BRAG2 by Bragsin in vitro predicts that BRAG2 silencing by siRNA should yield the same phenotype as treatment by the small molecule. Silencing of BRAG2 induced the redistribution of TGN46 into tubular or punctate structures, which phenocopied the effects induced by Bragsin (FIGS. 2e, 17 and 18). […] Silencing of ARNO, which is located at the plasma membrane, had no effect on TGN46 distribution. Overexpression of BRAG2-mCherry rescued the dispersion of the TGN46 structure induced by Bragsin, which is consistent with the silencing experiments (FIG. 2f). Bragsin is a specific inhibitor of the ArfGEF BRAG2 in vitro and in cells according to these experiments. These oexperiments identify a mechanism of inhibition that requires the membrane to manifests itself.
(§2) Bovine Δ17Arf1 and human Δ13Arf6, full-length myristoylated Arf1 and Arf6, human BRAG2^Sec7 (390-594) and BRAG2^Sec7PH (390-811), human EFA6^Sec7 (527-727) and EFA6^Sec7PHCt (527-1024), ARNO^Sec7 (50-256), BIG1^Sec7 (691-889), BIG1^DcbHusSec7 (2-888) and ARNO^Sec7PH (50-399) were expressed and purified as in (Benabdi, S. et al. Family-wide Analysis of the Inhibition of Arf Guanine Nucleotide Exchange Factors with Small Molecules: Evidence of Unique Inhibitory Profiles. Biochemistry 56, 5125-5133 (2017)) and references therein. BRAG2^Sec7PH mutants were purified as the wild type protein. Purification of human full-length Rac1 carrying a 6xHis tag in C-terminus and human TRIO^DH1PH1 (1232-1550) was described in (Peurois, F. et al. Characterization of the activation of small GTPases by their GEFs on membranes using artificial membrane tethering. Biochem J 474, 1259-1272 (2017)).
(§3) Lipids (of natural origin) were from Avanti Polar Lipids, except NBD-PE from Sigma. Liposomes were prepared as described in (Aizel, K. et al. Integrated conformational and lipid-sensing regulation of endosomal ArfGEF BRAG2. PLOS Biol 11, e1001652 (2013)) and extruded at 0.2 μm. For the Arf GEF specificity studies, liposomes contained 48% phosphatidylcholine (PC), 20% phosphatidylethanolamine (PE), 30% phosphatidylserine (PS) and 2% phosphatidylinositol-4,5-bisphosphate (PIP2). For Rac activation assay, liposomes contained 43% PC, 20% PE, 10% PS, 20% cholesterol, 2% PIP2, 5% NiNTA lipids and 0.2% NBD-PE. To exclude aggregation or disruption of the liposomes, their size distribution was controlled before and after experiments by dynamic light scattering as described in (Benabdi, S. et al. Biochemistry 56, 5125-5133 (2017)). Dose-response and flotation assays were carried out with liposomes containing 37.9% PC, 20% PE, 20% PS, 2% PIP2, 20% cholesterol and 0.1% NBD-PE. Flotation assays were carried out as in 18.
(§4) Nucleotide exchange kinetics were monitored by tryptophan fluorescence with excitation/emission wavelengths of 292/340 nm using a Cary Eclipse fluorimeter (Varian) at 37° C. and under continuous stirring as described in ^50,51. […]

[2] = target: T2, BIG1 (DCB-HUS-Sec7 construct) (Homo sapiens, UniProt Q9Y6D6); assay: as above; type: biochemical; settings: 50 μM
T2 construct: BIG1^Sec7 (691-889), BIG1^DcbHusSec7 (2-888); made in house
T2 sequence (Q9Y6D6 2-888): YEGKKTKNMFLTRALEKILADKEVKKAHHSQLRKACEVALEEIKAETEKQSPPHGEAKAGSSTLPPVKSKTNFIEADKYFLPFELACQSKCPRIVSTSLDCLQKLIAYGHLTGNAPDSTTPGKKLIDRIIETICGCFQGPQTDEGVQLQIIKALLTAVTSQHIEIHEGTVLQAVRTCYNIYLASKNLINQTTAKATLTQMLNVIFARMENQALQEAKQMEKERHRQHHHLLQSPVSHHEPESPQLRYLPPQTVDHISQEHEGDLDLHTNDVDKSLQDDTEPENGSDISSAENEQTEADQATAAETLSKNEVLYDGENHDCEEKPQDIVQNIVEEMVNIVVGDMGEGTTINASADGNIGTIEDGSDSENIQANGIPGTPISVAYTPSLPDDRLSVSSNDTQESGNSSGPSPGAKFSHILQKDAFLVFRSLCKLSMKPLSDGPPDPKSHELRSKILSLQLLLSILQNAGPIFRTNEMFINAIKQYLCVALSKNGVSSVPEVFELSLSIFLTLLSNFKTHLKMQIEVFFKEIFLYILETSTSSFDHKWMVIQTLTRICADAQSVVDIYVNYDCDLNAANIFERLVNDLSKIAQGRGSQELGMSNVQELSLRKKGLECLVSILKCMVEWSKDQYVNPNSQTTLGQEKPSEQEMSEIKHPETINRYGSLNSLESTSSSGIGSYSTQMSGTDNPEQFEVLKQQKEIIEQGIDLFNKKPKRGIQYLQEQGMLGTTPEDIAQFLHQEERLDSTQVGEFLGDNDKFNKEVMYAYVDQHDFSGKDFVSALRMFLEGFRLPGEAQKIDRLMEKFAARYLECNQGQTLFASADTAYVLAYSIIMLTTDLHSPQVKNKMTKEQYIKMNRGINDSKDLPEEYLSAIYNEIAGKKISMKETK
Procedure: as §1, §2, §3, §4

T1 sequence (A5PKW4 527-1024): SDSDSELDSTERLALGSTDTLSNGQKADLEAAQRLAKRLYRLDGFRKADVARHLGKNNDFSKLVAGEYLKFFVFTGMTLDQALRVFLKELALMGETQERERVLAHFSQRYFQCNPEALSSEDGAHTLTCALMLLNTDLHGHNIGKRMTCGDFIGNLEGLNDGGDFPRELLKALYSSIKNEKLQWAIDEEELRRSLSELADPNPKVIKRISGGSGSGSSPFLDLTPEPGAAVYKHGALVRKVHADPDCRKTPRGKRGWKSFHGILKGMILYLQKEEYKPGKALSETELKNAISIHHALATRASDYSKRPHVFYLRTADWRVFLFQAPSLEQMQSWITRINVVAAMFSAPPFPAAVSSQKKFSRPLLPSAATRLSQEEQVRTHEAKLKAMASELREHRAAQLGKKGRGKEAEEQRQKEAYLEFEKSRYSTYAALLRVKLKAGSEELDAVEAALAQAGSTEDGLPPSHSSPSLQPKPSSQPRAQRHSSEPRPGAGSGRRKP

## Cc1ccc2oc(C(F)(F)F)cc(=O)c2c1[N+](=O)[O-] [Bragsin1, 6-methyl-5-nitro-2-(trifluoromethyl)-4H-chromen-4-one]
[1]
  Effect on ArfGEF activity on liposomes: no effect
[2]
  Effect on ArfGEF activity on liposomes: no effect
